From paper PMC6149849, “Cymantrenyl-Nucleobases: Synthesis, Anticancer, Antitrypanosomal and Antimicrobial Activity Studies” (Molecules : A Journal of Synthetic Chemistry and Natural …, 2017)
≈ marks a conversion by molar mass, not a printed value.

Key:
[1] = test system: Clinical S. epidermidis (MSSA) 37/12; assay: Antibacterial liquid microdilution, clinical isolate; format: cell-based, Staphylococcus epidermidis
Procedure: (§1) This lack of activity against E. coli can be probably explained by an impeded cellular uptake of the compounds through the Gram-negative cell wall that consists of two layers and effective protein efflux pump systems. The antibacterial activities of 1 and C were further tested against four clinical isolates of S. aureus and two clinical isolates of S. epidermidis (Table 4).
(§2) The antibacterial activity of CymH, 1–7 and C and the reference drugs penicillin G and polymyxin B was tested by the liquid microdilution method under standard conditions using twofold dilution series, as described in the Clinical and Laboratory Standards Institute (CLSI), reference method M07-A8, and expressed as minimal inhibitory concentration (MIC) values. A panel of Gram-positive bacterial strains, S. aureus ATCC® 29213 (sensitive to methicillin, (MSSA)), S. aureus ATCC® 43300 (resistant to methicillin, (MRSA)), S. aureus ATCC 700787™ (intermediate to vancomycin, (VISA)), and S. epidermidis ATCC 12228™, and one Gram-negative, strain E. coli ATCC BAA-198™ (ESBL) were used. In addition, four clinical isolates of S. aureus (MSSA and MRSA) and two clinical isolates of S. epidermidis that were collected from different patients at the Medical University of Warsaw, Poland, were also tested. The bacterial cells were cultivated on tryptic soy agar (TSA) and nutrient agar (NA), according to ATCC recommendations. All of the strains were incubated at 37 °C. Tested compounds were dissolved in DMSO and then serially diluted twofold with cation-adjusted Mueller-Hinton broth (CAMHB). Then, 95 µL of the dilutions were dispensed into microdilution sterile plates (Mar-Four), followed by the addition of 5 µL of bacteria inoculum containing 5 × 10^4 CFU/mL. The final concentrations of the compounds ranged from 512 to 2 µg/mL. Each compound was tested in triplicate, and Penicillin G (8–0.15 µg/mL) and Polymyxin B (256–0.0625 µg/mL) were used as controls. The plates were incubated at 37 °C for 18 to 24 h depending on the bacterial strain. Thereafter, the absorbance was measured at λ = 540 nm and λ = 595 nm using a Spectrostar Omega microplate reader (BMG Labtech, Offenburg, Germany). The MIC value was defined as the lowest concentration of a compound that reduced the growth by 100%.

[2] = test system: Clinical S. epidermidis (MSSA) 43/12; assay: as above; format: cell-based, Staphylococcus epidermidis
Procedure: as §1, §2

[3] = test system: S. epidermidis ATCC 12228; assay: Antibacterial liquid microdilution (CLSI M07-A8); format: cell-based, Staphylococcus epidermidis
Procedure: (§3) Organometallic compounds play an increasingly important role in the search for new antibacterial agents. We, therefore, thought to investigate also the bactericidal activity of the newly synthesized cymantrenes 1–7, compound C and CymH. The antibacterial activity of the compounds was tested against Gram-positive methicillin-sensitive Staphylococcus aureus (MSSA), methicillin-resistant S. aureus (MRSA), vancomycin-intermediate S. aureus (VISA), S. epidermidis, and Gram-negative Escherichia coli bacterial strains, and expressed as minimal inhibitory concentration (MIC) values (Table 3).
as §2

[4] = test system: Clinical S. aureus (MRSA) 31/12; assay: Antibacterial liquid microdilution, clinical isolate; format: cell-based, Staphylococcus aureus
Procedure: as §1, §2

[5] = test system: Clinical S. aureus (MSSA) 30/11; assay: as above; format: cell-based, Staphylococcus aureus
Procedure: as §1, §2

[6] = test system: Clinical S. aureus (MSSA) 26/11; assay: as above; format: cell-based, Staphylococcus aureus
Procedure: as §1, §2

[7] = test system: Clinical S. aureus (MRSA) 44/12; assay: as above; format: cell-based, Staphylococcus aureus
Procedure: as §1, §2

[8] = test system: S. aureus ATCC 700787 (VISA); assay: Antibacterial liquid microdilution (CLSI M07-A8); format: cell-based, Staphylococcus aureus; conditions: 18 to 24 h
Procedure: as §3, §2

[9] = test system: S. aureus ATCC 43300 (MRSA); assay: Antibacterial liquid microdilution (CLSI M07-A8); format: cell-based, Staphylococcus aureus; conditions: 18 to 24 h
Procedure: as §3, §2

[10] = test system: S. aureus ATCC 29213 (MSSA); assay: Antibacterial liquid microdilution (CLSI M07-A8); format: cell-based, Staphylococcus aureus; conditions: 18 to 24 h
Procedure: as §3, §2

[11] = test system: E. coli ATCC BAA-198 (ESBL); assay: Antibacterial liquid microdilution (CLSI M07-A8); format: cell-based, Escherichia coli
Procedure: as §3, §2

[12] = test system: bloodstream forms of T. brucei clone 427-221a; assay: Trypanocidal assay, resazurin viability assay; format: cell-based, Trypanosoma brucei
Procedure: (§4) All of the cultures were maintained at 37 °C in a humidified atmosphere containing 5% of CO2. Toxicity assays were performed, as previously described, with some modifications. In brief, trypanosomes and HL-60 cells were seeded at an initial cell density of 10^4/mL and 5 × 10^4/mL, respectively, in 96-well plates in a final volume of 200 μL culture medium containing various concentrations of test compounds dissolved in 100% DMSO. […] The controls contained DMSO alone. In all of the experiments, the final DMSO concentration was 0.9%. After 24 h incubation, 20 µL of a 0.5 mM resazurin solution prepared in PBS was added and the cultures were incubated for a further 48 h. Resazurin is a vital dye that, when being reduced by living cells, changes its colour from blue to pink. Thus, by measuring absorbance, the proliferation of cells can be easily determined. The change in absorbance was read with a microplate reader using a test wavelength of 570 nm and a reference wavelength of 630 nm. GI50 values were calculated by linear interpolation according to the method described by Huber and Koella. MIC values were determined microscopically.

[13] = test system: human myeloid leukemia HL-60 cells; assay: in vitro; conditions: human, 72 h
Procedure: as §4

in vitro = conditions: human
Procedure: as §4

polymyxin B [reference compound]
MIC, Clinical S. epidermidis (MSSA) 37/12 [1]: 128 µg/mL
MIC, Clinical S. epidermidis (MSSA) 43/12 [2]: 64 µg/mL
MIC, S. epidermidis ATCC 12228 ([3]; 18 to 24 h): 64 µg/mL
MIC, Clinical S. aureus (MRSA) 31/12 [4]: 256 µg/mL
MIC, Clinical S. aureus (MSSA) 30/11 [5]: 256 µg/mL
MIC, Clinical S. aureus (MSSA) 26/11 [6]: 256 µg/mL
MIC, Clinical S. aureus (MRSA) 44/12 [7]: 256 µg/mL
MIC, S. aureus ATCC 700787 (VISA) [8]: >256 µg/mL
MIC, S. aureus ATCC 43300 (MRSA) [9]: 256 µg/mL
MIC, S. aureus ATCC 29213 (MSSA) [10]: 256 µg/mL
MIC, E. coli ATCC BAA-198 ([11]; 18 to 24 h): 0.125 µg/mL

Cc1ccc(C(=O)Nc2ccc(S(=O)(=O)O)c3cc(S(=O)(=O)O)cc(S(=O)(=O)O)c23)cc1NC(=O)c1cccc(NC(=O)Nc2cccc(C(=O)Nc3cc(C(=O)Nc4ccc(S(=O)(=O)O)c5cc(S(=O)(=O)O)cc(S(=O)(=O)O)c45)ccc3C)c2)c1 [Suramin, suramin, reference compound]
GI50 ([12]; Trypanosoma brucei, 50% growth inhibition): 39 ± 3 nM
MIC ([12]; Trypanosoma brucei, concentration at which all cells were killed, determined microscopically): 0.1 to 1 µM (≈ 0.13 to 1.3 µg/mL)
Selectivity GI50 Ratio ([12]; ratio of cytotoxic (HL-60) to trypanocidal (T. brucei) activity): >2564
HL-60 MIC [13]: >100 µM
GI50 at 72 h (in vitro): > 100 µM

CC1(C)S[C@@H]2[C@H](NC(=O)Cc3ccccc3)C(=O)N2[C@H]1C(=O)O [penicillin G, reference compound]
MIC ([1]; Staphylococcus epidermidis, MSSA, read-out: MIC, Clinical S. epidermidis 37/12): 16 µg/mL (≈ 47.8 µM)
MIC ([2]; Staphylococcus epidermidis, MSSA): 8 µg/mL (≈ 23.9 µM)
MIC ([3]; Staphylococcus epidermidis, ATCC12228, 18 to 24 h): 2 µg/mL (≈ 5.98 µM)
MIC ([4]; Staphylococcus aureus, MRSA): 32 µg/mL (≈ 95.7 µM)
MIC ([5]; Staphylococcus aureus, MSSA): 2 µg/mL (≈ 5.98 µM)
MIC ([6]; Staphylococcus aureus, MSSA): 0.5 µg/mL (≈ 1.5 µM)
MIC ([7]; Staphylococcus aureus, MRSA): 8 µg/mL (≈ 23.9 µM)
MIC ([8]; Staphylococcus aureus): 32 µg/mL (≈ 95.7 µM)
MIC ([9]; Staphylococcus aureus): 16 µg/mL (≈ 47.8 µM)
MIC ([10]; Staphylococcus aureus): 2 µg/mL (≈ 5.98 µM)
MIC ([11]; Escherichia coli, ATCCBAA198, 18 to 24 h): > 256 µg/mL
